Experiments:
[1] = system: Leishmania donovani; assay: Antiprotozoal activity against Leishmania donovani MHOM/ET/L82/LV9; type: functional, organism-based
[2] = system: Trypanosoma brucei brucei; assay: Antiprotozoal activity against Trypanosoma brucei brucei GVR35; type: functional
[3] = system: Trichomonas vaginalis; assay: Antiprotozoal activity against Trichomonas vaginalis CMP; type: functional, organism-based

| Structure (SMILES) | IC50 [1] [µM] | IC50 [3] [µM] | MAC [2] [µM] |
| --- | --- | --- | --- |
| CCCCCCC(=O)Nc1ccc2nccnc2c1Br | > 300 | > 300 | >300 |
| CCc1ccc(OCc2ccccc2C(=O)Nc2ccc3nc(-c4ccccc4)c(-c4ccccc4)nc3c2)cc1 | > 300 | > 300 | >300 |
| CCCCCCCCCCCCCCCC(=O)Nc1ccc2nccnc2c1Br | > 300 | > 300 | >300 |
| CCc1ccc(OCc2ccccc2C(=O)Nc2ccc3nc(C)c(C)nc3c2)cc1 | 8.2 | > 300 | 200 |
| c1cnc2cc(NCc3ccc4c(c3)OCO4)ccc2n1 | 79.5 | > 300 | >300 |
| CCn1c2ccccc2c2cc(NC(=O)c3ccc4nc(-c5ccccc5)c(-c5ccccc5)nc4c3)ccc21 | > 300 | > 300 | >300 |
| COc1cc2oc3ccccc3c2cc1NC(=O)c1ccc2nc(-c3ccccc3)c(-c3ccccc3)nc2c1 | > 300 | > 300 | >300 |
| COc1cc2oc3ccccc3c2cc1NC(=O)c1ccc2nccnc2c1 | > 300 | > 300 | >300 |
| CCc1ccc(OCc2ccccc2NC(=O)c2ccc3nc(C)c(C)nc3c2)cc1 | > 300 | > 300 | >300 |
| c1ccc(CNc2ccc3nccnc3c2)cc1 | 92.4 | 264 | >300 |
| O=C(Nc1ccc2nccnc2c1Br)c1ccc2ccccc2n1 | > 300 | > 300 | >300 |
| CCCCCCCCCCCCCCCC(=O)Nc1ccc2nc(C)c(C)nc2c1 | > 300 | > 300 | >300 |
| CCCCCNc1ccc2nccnc2c1 | 46.3 | 243 | >300 |
| Nc1nc(N)nc(Nc2ccc([As]3SCC(CO)S3)cc2)n1 (stereo not given) [MELARSOPROL] |  |  | 0.1 |

Further lines, with some results ahead:

| IC50 [1] [µM] | IC50 [3] [µM] | Structure (SMILES) | MAC [2] [µM] |
| --- | --- | --- | --- |
| > 300 | > 300 | O=C(Nc1ccc2nccnc2c1Br)c1ccc(C(=O)c2ccccc2)cc1 | >300 |
| 34 | > 300 | c1ccc2c(CNc3ccc4nccnc4c3)ccnc2c1 | >300 |
| > 300 | > 300 | CCCCCCCCCCCCC(=O)Nc1ccc2nccnc2c1Br | >300 |
| 18.5 | 126 | CCc1ccc(OCc2ccccc2C(=O)Nc2ccc3nccnc3c2)cc1 | 150 |
| > 300 | > 300 | CCc1ccc(OCc2ccccc2NC(=O)c2ccc3nc(-c4ccccc4)c(-c4ccccc4)nc3c2)cc1 | >300 |
| 18.4 | > 300 | CCc1ccc(OCc2ccccc2NC(=O)c2ccc3nccnc3c2)cc1 | 200 |
| 117 | > 300 | CCCCCCC(=O)Nc1ccc2nccnc2c1 | >300 |
| > 300 | > 300 | CCn1c2ccccc2c2cc(N(C(=O)c3ccc4nc(-c5ccccc5)c(-c5ccccc5)nc4c3)C(=O)c3ccc4nc(-c5ccccc5)c(-c5ccccc5)nc4c3)ccc21 | >300 |
| > 300 | > 300 | CCc1ccc(OCc2ccccc2NC(=O)c2ccc3nc(C)cnc3c2)cc1 | >300 |
| > 300 | > 300 | O=C(Nc1cccc2c1oc1ccccc12)c1ccc2nc(-c3ccccc3)c(-c3ccccc3)nc2c1 | >300 |
| 12.5 | > 300 | CCc1ccc(OCc2ccccc2C(=O)Nc2ccc3nc(C)cnc3c2)cc1 | 200 |
| > 300 | 191 | O=[N+]([O-])c1ccc(CNc2ccc3nccnc3c2)cc1 | >300 |
| > 300 | > 300 | CCn1c2ccccc2c2cc(NC(=O)c3ccc4nccnc4c3)ccc21 | 200 |
| > 300 | > 300 | Cc1nc2ccc(NC(=O)C34CC5CC(CC(C5)C3)C4)cc2nc1C | >300 |
| > 300 | > 300 | COc1cc2oc3ccccc3c2cc1N(C(=O)c1ccc2nc(-c3ccccc3)c(-c3ccccc3)nc2c1)C(=O)c1ccc2nc(-c3ccccc3)c(-c3ccccc3)nc2c1 | >300 |
| > 300 | > 300 | O=C(Nc1ccc2nccnc2c1)c1ccc(Br)o1 | >300 |
|  | 5.8 | Cc1ncc([N+](=O)[O-])n1CCO [METRONIDAZOLE] |  |
| 7.3 |  | CCCCCCCCCCCCCCCCOP(=O)([O-])OCC[N+](C)(C)C [MILTEFOSINE] |  |

From ChEMBL document CHEMBL1149446, “Synthesis and antiprotozoal activity of some new synthetic substituted quinoxalines” (Bioorg Med Chem Lett, 2006)
